The source of these data is patent US8501741B2, “Optically active compound of prulifloxacin for treating infection and preparation method thereof” (priority 2010, dated 2013).

The conditions of data set [1]: background statement; cited from earlier work.
The subject of data set [2] is Pseudomonas aeruginosa. Kind of data set: Systemic infection in mouse, P. aeruginosa. The class given is in vivo. The conditions noted are these: Kunming mice, intraperitoneal infection with minimal lethal dose, drug by gavage 1 hour after infection, 7 days observation, Bliss method; for ED50: Pseudomonas aeruginosa, ip. From the text:
(§1) 1. Origin of testing samples:
(§2) • Levo-ofloxacin was commercially available.
(§3) Prulifloxacin was self-made product, prepared according to the method disclosed in the publication J. Med. Chem. 1992, 35, 4727-4738.
(§4) Levo-prulifloxacin, dextro-prulifloxacin, levo-prulifloxacin hydrochloride, levo-prulifloxacin mesylate were self-made, prepared according to the method described in examples (see respective ordinal number in parenthesis following name of testing drug in Table 6);
(§5) 2. Experimental strains: Bacteria for infecting animals were pathogenic strains isolated from clinic;
(§6) 3. Preparation of liquid bacteria culture: 2-3 colonies were picked and inoculated into M-H broth, followed by incubation for 18 hours at 37° C. The culture was diluted appropriately with 5% dried yeast liquid for use.
(§7) 4. Experimental animals: Healthy SPF Kunming mice were selected, with 18-22 g in body weight, half male and half female.
(§8) 5. Determination of minimal lethal dose of bacteria: Mice were divided randomly, resulting in 10 mice in each group, half male and half female. The above-mentioned bacterial cultures in different dilutions were injected intraperitoneally into mice, in the amount of 0.5 mL per mouse, followed by continuous observation for 7 days after infection and recording the number of death mice. The minimal amount of bacteria which caused 100% death of mice was deemed as minimal lethal dose of bacteria and thereby was adopted for infection tests in vivo. 6. Preparation of testing drugs: The testing drugs were prepared with 1% CMC, respectively. 7. Method for infection and treatment: Experimental animals were divided randomly but evenly based on gender and body weight, resulting in 10 mice in each group, half male and half female. Minimal lethal dose of bacteria were injected intraperitoneally into mice in amount of 0.5 mL/mice, respectively. After infected for 1 hour, the testing drugs in different doses were administered to mice by gavage in the amount of 0.2 ml/10 g, respectively. Seven dose groups of 0.05, 0.10, 0.20, 0.40, 0.80, 1.60, 3.20 mg/kg were set up for Escherichia coli while seven dose groups of 0.50, 1.0, 2.0, 4.0, 8.0, 16.0, 32.0 mg/kg were set up for Pseudomonas aeruginosa. Observation was conducted after administration and death statuses of the mice were recorded. A control group was set up and the number of mice which died within 7 days after infection was recorded at the same time. The obtained data were processed by Bliss method to calculate ED50. 8.

Data set [3] concerns Escherichia coli. Kind of data set: Systemic infection in mouse, E. coli. It counts as in vivo. The conditions noted are these: Kunming mice, intraperitoneal infection with minimal lethal dose, drug by gavage 1 hour after infection, 7 days observation, Bliss method; for ED50: Escherichia coli, ip.
Source text: as §1, §2, §3, §4, §5, §6, §7, §8

Data set [4] in a line: Acute toxicity test in NIH mice, limited dosage by gavage. The conditions noted are these: both sexes, mouse, in vivo, po, 5000 mg/kg, single gavage, 2 weeks observation, read-out: LD50 of oral administration. The procedure:
Acute toxicity test was conducted in NIH mice by administrating limited-dosages of drugs.
Levo-prulifloxacin; control groups: racemic prulifloxacin group and blank control group
20 NIH mice in each group, half male and half female, 18˜22 g in body weight, were fasted overnight. Levo-prulifloxacin and racemic prulifloxacin were prepared to a 250 mg/ml suspension with 0.3% CMC, respectively, and then administered to the mice by gavage at once in the amount of 0.2 mL/10 g. After administration, observation was firstly conducted for 4 hours continuously, and then once a day for 2 weeks continuously. Animals' responses to toxicity, appearing time and recovering time thereof were recorded. On Day 2, 4, 8, 11 and 15, body weight of the animals were measured and amounts of feed intake were determined. Observation indexes included diet, appearance, behavior, secretion, excrement and the like Animals' death was recorded, starting time, severity, duration of toxic symptoms and toxic reactions, whether the symptoms or reactions are reversible and the like were also recorded. Animals dying from poisoning and dying animals were dissected roughly in time while all other animals were dissected roughly after completing observation. […] The obtained data were processed by Bliss method to calculate LD50.

The test system of data set [5] is bacteria. The conditions noted are these: ulifloxacin enantiomers, small samples from chiral preparation chromatographic column; cited from earlier work.

In the case of `Cc1oc(=O)oc1CN1CCN(c2cc3c(cc2F)c(=O)c(C(=O)O)c2n3C(C)S2)CC1` (racemic) [(+/−) Prulifloxacin, (±)6-fluoro-1-methyl-7-[4-(5-methyl-2-oxo-1,3-dioxolen-4-yl)methyl-1-piperazinyl]-4-oxo-4H-[1,3]thiazeto[3,2-α]quinoline-3-carboxylic acid, reference compound], in data set [1], the half-life (usually the time needed for the level to fall by half in the phase considered) is 8 to 9 h. Further, the “time at which peak blood concentration is attained” value in data set [1] was 0.5 to 1 h. For the same molecule, the ED50 (in general, the midpoint of the dose-response relation) was determined as 4.04 mg/kg in data set [2] and 0.53 mg/kg in data set [3]. Besides, the LD50 at 2 weeks in data set [4] is over 5000 mg/kg.
On to `Cc1oc(=O)oc1CN1CCN(c2cc3c(cc2F)c(=O)c(C(=O)O)c2n3C(C)S2)CC1` (single isomer, unassigned; (+)) [(+) Prulifloxacin], for which the “ED50 P. aeruginosa” value in data set [2] turned out to be 8.20 mg/kg. The “ED50 E. coli” value in data set [3] worked out at 1.58 mg/kg.
`CC1COc2c(N3CCN(C)CC3)c(F)cc3c(=O)c(C(=O)O)cn1c23` (centres unmarked) [Ofloxacin, reference compound]: the ED50 is 16.1 mg/kg in data set [2] and 0.82 mg/kg in data set [3].
Turning to `CS(=O)(=O)O.Cc1oc(=O)oc1CN1CCN(c2cc3c(cc2F)c(=O)c(C(=O)O)c2n3[C@H](C)S2)CC1` [(−) Prulifloxacin mesylate, S-(−)-6-fluoro-1-methyl-7-[4-(5-methyl-2-oxo-1,3-dioxolen-4-yl)methyl-1-piperazinyl]-4-oxo-4H-[1,3]thiazeto[3,2-α]quinoline-3-carboxylic acid mesylate], the “ED50 P. aeruginosa” value in data set [2] was 1.22 mg/kg. Moreover, the “ED50 E. coli” value in data set [3] is given as 0.11 mg/kg.
The matching figures for `Cc1oc(=O)oc1CN1CCN(c2cc3c(cc2F)c(=O)c(C(=O)O)c2n3[C@H](C)S2)CC1.Cl` [(−) Prulifloxacin hydrochloride, S-(−)-6-fluoro-1-methyl-7-[4-(5-methyl-2-oxo-1,3-dioxolen-4-yl)methyl-1-piperazinyl]-4-oxo-4H-[1,3]thiazeto[3,2-α]quinoline-3-carboxylic acid hydrochloride]: 1.25 mg/kg and 0.12 mg/kg.
Take `Cc1oc(=O)oc1CN1CCN(c2cc3c(cc2F)c(=O)c(C(=O)O)c2n3[C@H](C)S2)CC1` [(−) Prulifloxacin, S-(−)-6-fluoro-1-methyl-7-[4-(5-methyl-2-oxo-1,3-dioxolen-4-yl)methyl-1-piperazinyl]-4-oxo-4H-[1,3]thiazeto[3,2-α]quinoline-3-carboxylic acid]: the ED50 in data set [2] amounted to 1.02 mg/kg; in data set [3], 0.11 mg/kg. In addition, the LD50 at 2 weeks in data set [4] is over 5000 mg/kg.
Turning to `C[C@@H]1Sc2c(C(=O)O)c(=O)c3cc(F)c(N4CCNCC4)cc3n21` (single isomer, unassigned) [levo-enantiomer], in data set [5], the “antibacterial activity of levo-enantiomer relative to dextro-enantiomer” value is recorded as 2 to 8 times.
